# ChEMBL document CHEMBL1141509, “Development of pyridopyrimidines as potent Akt1/2 inhibitors” (Bioorg Med Chem Lett, 2008)
# Tests used:
# [1] = target: T1, RAC-alpha serine/threonine-protein kinase (Homo sapiens, UniProt P31749); assay: Inhibition of Akt1
# [2] = target: T2, RAC-beta serine/threonine-protein kinase (Homo sapiens, UniProt P31751); assay: Inhibition of Akt2 in human C33A cells by immunoprecipitation kinase assay; assay type: cell-based, C-33-A
# [3] = target: T2, RAC-beta serine/threonine-protein kinase; assay: Inhibition of Akt2
# [4] = target: T1, RAC-alpha serine/threonine-protein kinase; assay: Inhibition of human Akt1 in human C33A cells by immunoprecipitation kinase assay; assay type: cell-based, C-33-A
# [5] = target: T3, Serine/threonine-protein kinase Sgk1 (Homo sapiens, UniProt O00141); assay: Inhibition of SGK
# T3 sequence (O00141 whole entry): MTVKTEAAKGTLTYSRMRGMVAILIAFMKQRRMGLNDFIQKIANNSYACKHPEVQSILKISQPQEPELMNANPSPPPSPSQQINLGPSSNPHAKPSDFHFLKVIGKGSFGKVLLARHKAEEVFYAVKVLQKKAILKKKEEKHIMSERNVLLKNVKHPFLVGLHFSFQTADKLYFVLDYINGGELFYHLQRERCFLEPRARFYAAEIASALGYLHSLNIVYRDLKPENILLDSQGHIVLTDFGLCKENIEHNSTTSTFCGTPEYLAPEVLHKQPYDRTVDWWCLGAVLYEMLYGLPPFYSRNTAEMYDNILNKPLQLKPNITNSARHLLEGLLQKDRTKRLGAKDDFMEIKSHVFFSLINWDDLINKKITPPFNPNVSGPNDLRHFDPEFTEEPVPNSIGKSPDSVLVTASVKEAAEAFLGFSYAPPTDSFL
# [6] = Inhibition of PKA
# [7] = Inhibition of PKC
# [8] = target: RAC-gamma serine/threonine-protein kinase (Homo sapiens, UniProt Q9Y243); assay: Inhibition of Akt3
# Sequence of RAC-gamma serine/threonine-protein kinase (Q9Y243 whole entry): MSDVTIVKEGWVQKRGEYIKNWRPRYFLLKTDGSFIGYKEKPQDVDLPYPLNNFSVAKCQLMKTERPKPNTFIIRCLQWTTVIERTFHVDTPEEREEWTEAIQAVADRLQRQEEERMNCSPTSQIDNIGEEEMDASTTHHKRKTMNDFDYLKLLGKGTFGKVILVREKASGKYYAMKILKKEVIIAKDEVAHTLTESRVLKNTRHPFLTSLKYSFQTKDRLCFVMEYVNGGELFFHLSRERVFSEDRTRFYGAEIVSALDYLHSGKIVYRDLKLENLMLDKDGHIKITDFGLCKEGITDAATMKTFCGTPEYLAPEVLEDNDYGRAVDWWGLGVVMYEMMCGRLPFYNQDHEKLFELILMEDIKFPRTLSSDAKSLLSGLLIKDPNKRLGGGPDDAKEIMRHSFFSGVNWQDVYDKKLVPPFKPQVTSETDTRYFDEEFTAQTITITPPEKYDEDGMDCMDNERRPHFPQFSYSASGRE
# T2 sequence (P31751 whole entry): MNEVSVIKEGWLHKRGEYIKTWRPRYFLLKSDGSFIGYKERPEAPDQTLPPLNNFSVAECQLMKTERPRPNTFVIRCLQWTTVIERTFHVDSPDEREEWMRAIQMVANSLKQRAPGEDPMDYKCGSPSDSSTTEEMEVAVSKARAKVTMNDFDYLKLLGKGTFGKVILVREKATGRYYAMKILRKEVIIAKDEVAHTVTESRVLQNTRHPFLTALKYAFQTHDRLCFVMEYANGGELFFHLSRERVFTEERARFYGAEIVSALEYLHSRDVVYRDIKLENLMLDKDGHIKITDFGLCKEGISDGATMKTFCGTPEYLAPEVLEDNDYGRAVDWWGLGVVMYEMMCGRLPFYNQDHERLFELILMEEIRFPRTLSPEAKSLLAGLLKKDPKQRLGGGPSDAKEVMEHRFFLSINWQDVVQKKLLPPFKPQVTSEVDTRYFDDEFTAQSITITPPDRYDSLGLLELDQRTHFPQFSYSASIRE
# T1 sequence (P31749 whole entry): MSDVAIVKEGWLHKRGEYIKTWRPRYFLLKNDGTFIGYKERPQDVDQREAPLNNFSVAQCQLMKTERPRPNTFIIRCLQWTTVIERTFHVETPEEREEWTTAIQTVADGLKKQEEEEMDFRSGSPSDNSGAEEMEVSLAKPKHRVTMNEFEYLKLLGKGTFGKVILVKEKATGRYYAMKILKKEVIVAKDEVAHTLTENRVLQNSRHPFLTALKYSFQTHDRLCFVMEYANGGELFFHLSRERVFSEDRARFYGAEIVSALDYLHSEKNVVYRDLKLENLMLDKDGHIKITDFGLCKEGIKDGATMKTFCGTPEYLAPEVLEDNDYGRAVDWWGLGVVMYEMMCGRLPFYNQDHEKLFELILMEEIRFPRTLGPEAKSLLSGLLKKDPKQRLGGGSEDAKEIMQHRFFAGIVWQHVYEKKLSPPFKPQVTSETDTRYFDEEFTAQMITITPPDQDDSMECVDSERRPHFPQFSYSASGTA
IC50 [1] [nM],IC50 [2] [nM],IC50 [3] [nM],IC50 [4] [nM],IC50 [5] [nM],IC50 [6] [nM],IC50 [7] [nM],IC50 [8] [nM],Structure (SMILES)
4,828,44,60,–,–,–,–,CSc1ncc2cc(-c3ccccc3)c(-c3ccc(CN4CCC(n5ncc6c(N)ncnc65)CC4)cc3)nc2n1
286,–,5130,–,–,–,–,–,CSc1ncc2cc(-c3ccccc3)c(-c3ccc(CN4CCC(NC(=O)CNC(C)=O)CC4)cc3)nc2n1
29,9260,928,560,–,–,–,–,CSc1ncc2cc(-c3ccccc3)c(-c3ccc(CN4CCC(C(N)=O)CC4)cc3)nc2n1
24,586,59,100,–,–,–,–,N#Cc1ncc2cc(-c3ccccc3)c(-c3ccc(CN4CCC(c5nnc(-c6ccccn6)[nH]5)CC4)cc3)nc2n1
23.6,2300,107,42.6,–,–,–,–,COc1ncc2cc(-c3ccccc3)c(-c3ccc(CN4CCC(c5nnc(-c6ccccn6)[nH]5)CC4)cc3)nc2n1
64,–,1300,–,–,–,–,–,CSc1ncc2cc(-c3ccccc3)c(-c3ccc(CN4CCC(c5nc(-c6cccnc6)no5)CC4)cc3)nc2n1
46,–,529,–,–,–,–,–,CSc1ncc2cc(-c3ccccc3)c(-c3ccc(CNCCc4nnc(N)s4)cc3)nc2n1
–,1810,239,–,–,–,–,–,Nc1ncnc2nc(-c3ccc(CN4CCC(c5nc6ccc(F)cc6[nH]5)CC4)cc3)c(-c3ccccc3)cc12
226,–,1300,–,–,–,–,–,CSc1ncc2cc(-c3ccccc3)c(-c3ccc(CNCCC(N)=O)cc3)nc2n1
8.5,1570,267,79,–,–,–,–,CSc1ncc2cc(-c3ccccc3)c(-c3ccc(CN4CCC(c5nnc(N)s5)CC4)cc3)nc2n1
137,–,1510,–,–,–,–,–,CSc1ncc2cc(-c3ccccc3)c(-c3ccc(CNCCCn4ccnc4)cc3)nc2n1
15,–,90,–,–,–,–,–,CSc1ncc2cc(-c3ccccc3)c(-c3ccc(CNCCC(=O)c4ccccc4N)cc3)nc2n1
4.5,635,57,85,–,–,–,–,CSc1ncc2cc(-c3ccccc3)c(-c3ccc(CN4CCC(c5cc(-c6ccncc6)[nH]n5)CC4)cc3)nc2n1
162,–,1790,–,–,–,–,–,CSc1ncc2cc(-c3ccccc3)c(-c3ccc(CNCCc4nnc(C)[nH]4)cc3)nc2n1
3.8,589,26,9.3,–,–,–,–,CSc1ncc2cc(-c3ccccc3)c(-c3ccc(CN4CCC(c5nnc(-c6ccccn6)[nH]5)CC4)cc3)nc2n1
9.7,1130,301,133,–,–,–,–,CSc1ncc2cc(-c3ccccc3)c(-c3ccc(CN4CCC(C(=O)Nc5ccncc5)CC4)cc3)nc2n1
6.2,3710,35,96.4,–,–,–,–,NC(=O)c1ncc2cc(-c3ccccc3)c(-c3ccc(CN4CCC(c5nnc(-c6ccccn6)[nH]5)CC4)cc3)nc2n1
63,–,494,–,–,–,–,–,CSc1ncc2cc(-c3ccccc3)c(-c3ccc(CNCCc4nnc(-c5ccccc5)[nH]4)cc3)nc2n1
139,–,1710,–,–,–,–,–,CSc1ncc2cc(-c3ccccc3)c(-c3ccc(CNCCc4nc[nH]n4)cc3)nc2n1
91,–,2110,–,–,–,–,–,CSc1ncc2cc(-c3ccccc3)c(-c3ccc(CN4CCC(C(=O)NCCC(N)=O)CC4)cc3)nc2n1
90,–,1160,–,–,–,–,–,CSc1ncc2cc(-c3ccccc3)c(-c3ccc(CNCCc4cccnc4)cc3)nc2n1
1520,–,17500,–,–,–,–,–,CSc1ncc2cc(-c3ccccc3)c(-c3ccc(CN(C)CCc4cn[nH]c4)cc3)nc2n1
198,–,1380,–,–,–,–,–,CSc1ncc2cc(-c3ccccc3)c(-c3ccc(CNCCc4nccs4)cc3)nc2n1
6,899,94.4,20.3,> 50000,> 50000,> 50000,2470,CNc1ncc2cc(-c3ccccc3)c(-c3ccc(CN4CCC(c5nnc(-c6ccccn6)[nH]5)CC4)cc3)nc2n1
81,5300,1910,795,–,–,–,–,CCNC(=O)NC1CCN(Cc2ccc(-c3nc4nc(SC)ncc4cc3-c3ccccc3)cc2)CC1
14,468,99,295,–,–,–,–,Nc1ncnc2nc(-c3ccc(CN4CCC(n5ncc6c(N)ncnc65)CC4)cc3)c(-c3ccccc3)cc12
765,–,8920,–,–,–,–,–,CSc1ncc2cc(-c3ccccc3)c(-c3ccc(CNCCCN4CCN(C)CC4)cc3)nc2n1
99,–,1240,–,–,–,–,–,CSc1ncc2cc(-c3ccccc3)c(-c3ccc(CNCCc4c[nH]cn4)cc3)nc2n1
